Legend:
Adenosine receptor A1 [1] = target: T1, Adenosine receptor A1 (Rattus norvegicus, UniProt P25099); assay: Displacement of [3H]DPCPX from adenosine receptor A1 in Sprague-Dawley rat whole brain cell membranes after 60 mins by liquid scintillation counting
T1 sequence (P25099 whole entry): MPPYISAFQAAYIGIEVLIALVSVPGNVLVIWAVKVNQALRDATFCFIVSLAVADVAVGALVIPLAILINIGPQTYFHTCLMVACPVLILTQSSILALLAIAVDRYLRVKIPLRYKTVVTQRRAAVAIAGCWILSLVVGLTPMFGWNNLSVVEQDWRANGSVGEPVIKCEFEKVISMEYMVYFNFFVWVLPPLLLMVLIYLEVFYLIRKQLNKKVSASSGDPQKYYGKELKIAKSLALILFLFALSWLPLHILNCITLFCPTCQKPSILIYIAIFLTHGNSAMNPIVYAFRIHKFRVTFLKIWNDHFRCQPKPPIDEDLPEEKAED

Adenosine receptor A2a [2] = target: T2, Adenosine receptor A2a (Rattus norvegicus, UniProt P30543); assay: Displacement of [3H]NECA from adenosine receptor A2A in Sprague-Dawley rat striatal membranes after 60 mins by liquid scintillation counting; set-up: species or system Striatum, Membrane
Adenosine receptor A1 [3] = target: T1, Adenosine receptor A1; assay: Displacement of [3H]DPCPX from adenosine receptor A1 in Sprague-Dawley rat whole brain membranes after 60 mins in presence of GTP by liquid scintillation counting method; set-up: species or system Membrane
brain = assay: Selectivity index, ratio of Ki for adenosine receptor A2A in Sprague-Dawley rat striatal membranes to Ki for adenosine receptor A1 in Sprague-Dawley rat whole brain cell membranes; format: cell-based
Adenosine receptor A2a [4] = target: T2, Adenosine receptor A2a; assay: Displacement of [3H]NECA from adenosine receptor A2A in rat striatal membranes

T2 sequence (P30543 whole entry): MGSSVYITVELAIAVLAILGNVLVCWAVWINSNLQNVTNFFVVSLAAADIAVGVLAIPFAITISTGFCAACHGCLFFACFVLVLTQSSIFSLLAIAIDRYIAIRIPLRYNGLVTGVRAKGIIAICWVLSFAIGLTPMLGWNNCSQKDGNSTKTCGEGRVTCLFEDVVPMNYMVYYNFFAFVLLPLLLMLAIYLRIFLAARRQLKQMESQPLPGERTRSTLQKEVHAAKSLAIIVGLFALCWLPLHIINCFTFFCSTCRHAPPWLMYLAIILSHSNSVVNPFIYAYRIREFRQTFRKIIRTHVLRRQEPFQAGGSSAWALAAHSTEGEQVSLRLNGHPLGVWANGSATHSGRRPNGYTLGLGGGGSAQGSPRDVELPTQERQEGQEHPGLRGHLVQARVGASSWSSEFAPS

SMILES	Ki (Adenosine receptor A1 [1]) [nM]	Ki (Adenosine receptor A2a [2]) [nM]	Ki (Adenosine receptor A1 [3]) [nM]	Ki (Adenosine receptor A2a [4]) [nM]	Ratio Ki (brain)
CCn1c(=O)c2c(nc(COc3ccc(Br)cc3)n2C)n(CC)c1=O	264	1360	267		
CCn1c(=O)c2c(nc(COc3ccc(F)cc3)n2C)n(CC)c1=O	1230	841			0.7
CCn1c(=O)c2c(ncn2C)n(CC)c1=O	5610	2690			0.5
CCn1c(=O)c2c(nc(COc3ccccc3)n2C)n(CC)c1=O			892		
CCn1c(=O)c2c(nc(COc3ccc(C)cc3)n2C)n(CC)c1=O	1420	1300			0.9
CCn1c(=O)c2c(nc(COc3ccc(OC)cc3)n2C)n(CC)c1=O	1220	237		237	

Continued, in another order:

Ki (Adenosine receptor A1 [1]) [nM]	Ki (Adenosine receptor A2a [2]) [nM]	Ki (Adenosine receptor A1 [3]) [nM]	Ki (Adenosine receptor A2a [4]) [nM]	SMILES	Ratio Ki (brain)
9190	2570			Cn1c(=O)c2c(nc(COc3ccc(F)cc3)n2C)n(C)c1=O	0.3
5560	940			Cn1c(=O)c2c(nc(COc3ccc(Cl)cc3)n2C)n(C)c1=O	0.2
6760	3640			Cc1ccc(OCc2nc3c(c(=O)n(C)c(=O)n3C)n2C)cc1	0.5
974	1040			CCn1c(=O)c2c(nc(COc3ccc(Cl)cc3)n2C)n(CC)c1=O	1.1
3690	1730			Cn1c(=O)c2c(nc(COc3ccc(Br)cc3)n2C)n(C)c1=O	0.5
4670	2400			COc1ccc(OCc2nc3c(c(=O)n(C)c(=O)n3C)n2C)cc1	0.5

— ChEMBL document CHEMBL3868608, “Discovery of 1,3-diethyl-7-methyl-8-(phenoxymethyl)-xanthine derivatives as novel adenosine A1 and A2A receptor antagonists” (Bioorg Med Chem Lett, 2016)
